Data published in US11608313B2, “Adamantylmethylamine derivative and use thereof as pharmaceutical” (TOHOKU UNIVERSITY, priority 2017, dated 2023).

Assays:
Kir6.2 channels = molecular target: T1, Kir6.2 channels (Mus musculus, UniProt Q61743); assay: Patch-clamp assay of outward potassium current in Kir6.2 channel-overexpressing cells; assay type: cell-based; settings: 10 nM, whole-cell patch-clamp
T1 construct: The plasmid vector having inserted therein Kir6.2 channel cDNA: pcDNA3.1-Kir6.2; expressed in transfected cells; host or cells: Neuro2A (N2A) cells, mouse neuroblastoma
T1 sequence (Q61743 1-390): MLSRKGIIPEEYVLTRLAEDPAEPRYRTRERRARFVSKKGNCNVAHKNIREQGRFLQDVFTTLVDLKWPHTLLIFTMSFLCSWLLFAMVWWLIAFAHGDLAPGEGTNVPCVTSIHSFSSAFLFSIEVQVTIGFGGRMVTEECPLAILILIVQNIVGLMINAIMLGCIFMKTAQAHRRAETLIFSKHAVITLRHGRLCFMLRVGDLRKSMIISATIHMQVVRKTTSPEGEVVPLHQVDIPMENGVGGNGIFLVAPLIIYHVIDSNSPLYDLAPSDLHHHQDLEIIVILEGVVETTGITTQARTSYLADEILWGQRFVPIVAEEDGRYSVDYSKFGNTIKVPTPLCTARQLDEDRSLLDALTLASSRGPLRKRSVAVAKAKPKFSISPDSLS
Source text: The Kir6.2 channel-overexpressing cells obtained in Test Example 1 were used to measure potassium current discharged out of the cells by a conventional patch-clamp assay. ATP-sensitive potassium channels (Kir6.2 channels) are localized in the cell membranes of nerve cells. When the channels are inhibited and closed, the threshold of the nerve cell membranes increases to create a condition analogous to temporal generation of action potential, with the result that intracellular potassium current is discharged out of the cells and instead extracellular calcium current enters the cells. Immunoblotting of Kir6.2 channel-overexpressing cells (prepared by the aforementioned method) using an anti-Kir6.2 channel antibody (prepared by a conventional method) (n=5, under the same conditions as in Test Example 1, except for using the anti-Kir6.2 channel antibody) confirmed that Kir6.2 channels were overexpressed in N2A cells (FIG. 2-1; upper: immunoblot staining images; lower: quantitative representations of the signal intensity of staining bands).

Kir6.1 channels = molecular target: T2, Kir6.1 channels (Mus musculus, UniProt P97794); assay: Patch-clamp assay of outward potassium current in Kir6.1 channel-overexpressing cells; assay type: cell-based; settings: 10 nM
T2 construct: The plasmid vector having inserted therein Kir6.1 channel cDNA: pcDNA3.1-Kir6.1; expressed in transfected cells; host or cells: Neuro2A (N2A) cells, mouse neuroblastoma
T2 sequence (P97794 1-424): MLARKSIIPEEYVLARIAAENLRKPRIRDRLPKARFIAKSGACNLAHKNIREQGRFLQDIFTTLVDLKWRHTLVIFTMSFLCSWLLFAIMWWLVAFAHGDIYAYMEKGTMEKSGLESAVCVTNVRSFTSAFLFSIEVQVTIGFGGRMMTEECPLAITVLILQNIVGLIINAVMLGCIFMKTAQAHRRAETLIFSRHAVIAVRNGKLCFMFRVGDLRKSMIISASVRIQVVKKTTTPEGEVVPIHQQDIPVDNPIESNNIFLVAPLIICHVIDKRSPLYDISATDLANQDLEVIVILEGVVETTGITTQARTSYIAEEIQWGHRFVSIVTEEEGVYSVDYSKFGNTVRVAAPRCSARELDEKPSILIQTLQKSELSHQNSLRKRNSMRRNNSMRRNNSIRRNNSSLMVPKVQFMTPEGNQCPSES
Source text: Further, the obtained Kir6.1 channel-overexpressing cells were used to measure potassium current discharged out of the cells by a conventional patch-clamp assay. ATP-sensitive potassium channels (Kir6.1 channels) are localized in the cell membranes of nerve cells. If the channels are inhibited and closed, the threshold of the nerve cell membranes rises to create a condition analogous to temporal generation of action potential, with the result that intracellular potassium current is discharged out of the cells and instead extracellular calcium current enters the cells. Immunoblotting of Kir6.1 channel-overexpressing cells (prepared by the aforementioned method) using an anti-Kir6.1 channel antibody (prepared by a conventional method) (n=5, under the same conditions as in Test Example 1, except for using the anti-Kir6.1 channel antibody) confirmed that Kir6.1 channels were overexpressed in N2A cells (FIG. 18-2; upper: immunoblot staining images; lower: quantitative representations of the signal intensity of staining bands).

[1] = system: Wild-type mice (C57BL/6J) treated with corticosterone; assay: Anxiety-related behavioral tests in corticosterone-treated wild-type mice; assay type: in vivo; settings: 1 mg/kg orally once a day for 2 weeks
Method: Wild-type mice (C57BL/6J, Japan SLC, two month-old) treated with corticosterone (at a dose of 5 mg/kg once a day for 2 weeks) and Kir6.1-deficient mice treated with corticosterone were used as disease models showing anxiety-like symptoms, to perform five behavioral tests regarding anxiety-related behaviors. The Kir6.1-deficient mice were obtained from Professor Susumu Seino, School of Medicine of Kobe University (Miki T., et al., Nature Medicine 2002, 8, 466-472).
The apparatus used in this test consists of four arms arranged in a cross shape at an elevated position, which are either open or closed. Mice vulnerable to anxiety stay in the closed arms for a longer time, whereas those resistant to anxiety stay in the open arms. In FIG. 19-1, the time spent in the open arms is shown on the vertical axis.
Mice placed in a black box (dark place) feel anxious about light. The time spent until mice began to come out of the box (to a bright place) was measured. […]
In a cage with a mouse, wood chips are spread over the cage floor and 20 marbles are placed thereon in a manner that is visible to the mouse. The mouse is allowed to freely explore for 30 minutes, and the number of marbles buried and hidden by the mouse in wood chips is counted. […]
The test apparatus used in this test was the same as used in the light/dark test method. […] Such an immobility time of mice is measured. […]

SMILES: O=C(N[C@@H](c1ccccc1)[C@H]1[C@H]2C[C@@H]3C[C@](Cl)(C2)C[C@@]1(OC(=O)C(F)(F)F)C3)C(F)(F)F [TP-014, (1S,2R,3S,5S,7S)-5-chloro-2-((R)-phenyl(2,2,2-trifluoroacetamido)methyl)adamantan-1-yl 2,2,2-trifluoroacetate]
- outwardly flowing potassium current (Kir6.2 channels): suppressed
- outwardly flowing potassium current (Kir6.1 channels): suppressed
- exacerbated anxiety symptoms (elevated plus-maze, light/dark, marble burying, open field, fear conditioning tests) [1]: significant amelioration of exacerbated anxiety symptoms
